Reference: patent US20210402016A1, “RADIOLABELED BOMBESIN-DERIVED COMPOUNDS FOR IN VIVO IMAGING OF GASTRIN-RELEASING PEPTIDE RECEPTOR (GRPR) AND TREATMENT OF GRPR-RELATED DISORDERS” (Provincial Health Services Authority, priority 2018, published 2021)
Where two headings read alike, the source gives them in different places.

Assay: Biodistribution in PC-3 tumor-bearing NRG mice (Example 1)
Assay type: in vivo
Details: male, NRG (NOD.Cg-Rag1tm1Mom Il2rgtm1Wjl/SzJ), mouse, iv, 1.84 MBq, total radioactivity; for tissue uptake at 0.5 h: 30 min p.i.; for tissue uptake at 1 h: 60 min p.i.; for tissue uptake at 2 h: 120 min p.i.
Experimental: The mice were sacrificed by CO2 inhalation at 30 min, 1 h, and 2 h p.i. Blood was collected by cardiac puncture. Organs/tissues were harvested, rinsed with PBS, blotted dry, and weighed. The activity in tissues was assayed by gamma counter and expressed as the percentage injected dose per gram of tissue (% ID/g).

[1] = PC-3 tumor, read-out: Biodistribution PC-3 Tumor, Mean
[2] = adrenals, read-out: Biodistribution Adrenals, Mean
[3] = bone, read-out: Biodistribution Bone, Mean
[4] = brain, read-out: Biodistribution Brain, Mean
[5] = fat, read-out: Biodistribution Fat, Mean
[6] = intestine, read-out: Biodistribution Intestine, Mean
[7] = kidney, read-out: Biodistribution Kidney, Mean
[8] = liver, read-out: Biodistribution Liver, Mean
[9] = lung, read-out: Biodistribution Lung, Mean
[10] = muscle, read-out: Biodistribution Muscle, Mean
[11] = pancreas, read-out: Biodistribution Pancreas, Mean
[12] = seminal glands, read-out: Biodistribution Seminal glands, Mean
[13] = spleen, read-out: Biodistribution Spleen, Mean
[14] = testes, read-out: Biodistribution Testes, Mean
[15] = whole blood, read-out: Biodistribution Blood, Mean

CC(C)C[C@@H](CN1CCC[C@H]1C(N)=O)NC(=O)[C@H](Cc1c[nH]cn1)NC(=O)CNC(=O)[C@@H](NC(=O)[C@H](C)NC(=O)[C@H](Cc1c[nH]c2ccccc12)NC(=O)[C@H](CCC(N)=O)NC(=O)[C@@H](Cc1ccccc1)NC(=O)COCC(=O)Nc1ccc(CNC(=O)CN2CCN(CC(=O)O)CCN(CC(=O)O)CCN(CC(=O)O)CC2)cc1)C(C)C [^68Ga-ProBOMB1, metal not drawn] showed a tissue uptake at 0.5 h [1] of 4.62 %ID/g, a tissue uptake at 1 h [1] of 8.17 %ID/g and a tissue uptake at 2 h [1] of 8.31 %ID/g. It also gave a tissue uptake at 0.5 h [2] of 0.95 %ID/g, a tissue uptake at 1 h [2] of 0.65 %ID/g and a tissue uptake at 2 h [2] of 1.23 %ID/g. The tissue uptake at 0.5 h [3] was 0.22 %ID/g, the tissue uptake at 1 h [3] was 0.26 %ID/g and the tissue uptake at 2 h [3] was 0.39 %ID/g. The tissue uptake at 0.5 h [4] was 0.02 %ID/g, the tissue uptake at 1 h [4] was 0.02 %ID/g and the tissue uptake at 2 h [4] was 0.03 %ID/g. For the same compound, the tissue uptake at 0.5 h [5] was 0.17 %ID/g, the tissue uptake at 1 h [5] was 0.06 %ID/g and the tissue uptake at 2 h [5] was 0.07 %ID/g. The tissue uptake at 0.5 h [6] was 2.63 %ID/g, the tissue uptake at 1 h [6] was 2.47 %ID/g and the tissue uptake at 2 h [6] was 1.68 %ID/g. The tissue uptake at 0.5 h [7] was 2.83 %ID/g, the tissue uptake at 1 h [7] was 1.4 %ID/g and the tissue uptake at 2 h [7] was 0.78 %ID/g. It also gave a tissue uptake at 0.5 h [8] of 1.93 %ID/g, a tissue uptake at 1 h [8] of 1.21 %ID/g and a tissue uptake at 2 h [8] of 0.75 %ID/g. For the same compound, the tissue uptake at 0.5 h [9] was 0.54 %ID/g, the tissue uptake at 1 h [9] was 0.35 %ID/g and the tissue uptake at 2 h [9] was 0.25 %ID/g. It also gave a tissue uptake at 0.5 h [10] of 0.36 %ID/g, a tissue uptake at 1 h [10] of 0.09 %ID/g and a tissue uptake at 2 h [10] of 0.08 %ID/g. The tissue uptake at 0.5 h [11] was 10.3 %ID/g, the tissue uptake at 1 h [11] was 4.68 %ID/g and the tissue uptake at 2 h [11] was 1.55 %ID/g. The tissue uptake at 0.5 h [12] was 0.17 %ID/g, the tissue uptake at 1 h [12] was 1.08 %ID/g and the tissue uptake at 2 h [12] was 0.43 %ID/g. It also gave a tissue uptake at 0.5 h [13] of 0.5 %ID/g, a tissue uptake at 1 h [13] of 0.44 %ID/g and a tissue uptake at 2 h [13] of 0.31 %ID/g. The tissue uptake at 0.5 h [14] was 0.31 %ID/g, the tissue uptake at 1 h [14] was 0.11 %ID/g and the tissue uptake at 2 h [14] was 0.09 %ID/g. The tissue uptake at 0.5 h [15] was 1.06 %ID/g, the tissue uptake at 1 h [15] was 0.4 %ID/g and the tissue uptake at 2 h [15] was 0.13 %ID/g.
